Assay [1] addresses T1, KRas G12D (Homo sapiens (Human), UniProt P01116, G12D). Description: KRas G12D Binding Assay (TR-FRET displacement of Cy5 labelled tracer). The following applies: GDP-loaded KRAS G12D (amino acids 1:169), 60 minute incubation at 22° C. How it is done: After a 60 minute incubation at 22° C., the reaction was measured using a PerkinElmer EnVision multimode plate reader via TR-FRET dual wavelength detection, and the percent of control (POC) calculated using a ratiometric emission factor. […] The POC values were fit to a 4-parameter logistic curve and the IC50 value was determined as the concentration where the curve crosses 50 POC.
ND stands for “not determined.”
For orientation: In TR-FRET formats the signal depends on donor and acceptor labels being close together.
Target sequence in this assay (P01116 other isoform, or with tags, fused parts or gaps G12D): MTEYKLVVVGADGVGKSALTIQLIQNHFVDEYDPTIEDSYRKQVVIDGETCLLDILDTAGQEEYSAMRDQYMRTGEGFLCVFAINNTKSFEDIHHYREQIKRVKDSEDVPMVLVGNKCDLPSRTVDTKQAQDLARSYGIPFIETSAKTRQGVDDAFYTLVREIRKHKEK

In assay [2] the target is T1, KRas G12D. Description: KRas G12D Surface Plasmon Resonance (SPR) Binding Assay. Particulars: Biacore T200, immobilized biotinylated KRAS protein, 1:1 binding model.
Target sequence in this assay (P01116-2 other isoform, or with tags, fused parts or gaps G12D): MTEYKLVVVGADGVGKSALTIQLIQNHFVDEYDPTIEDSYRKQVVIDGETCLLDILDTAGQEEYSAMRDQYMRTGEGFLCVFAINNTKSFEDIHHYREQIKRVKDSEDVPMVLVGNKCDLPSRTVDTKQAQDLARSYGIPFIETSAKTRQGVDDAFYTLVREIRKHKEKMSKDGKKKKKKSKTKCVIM

Broadly, the IC50 is the concentration that gives 50% inhibition. Higher therefore signals lower potency. By Kd is commonly meant the free concentration of one partner at which half of the binding sites on the other are occupied at equilibrium, for simple one-to-one binding. A high value points to weaker binding.

Turning to `Oc1cc(-c2ncc3c(N4C[C@H]5CC[C@@H](C4)N5)nc(N4CCC4)nc3c2F)c2ccccc2c1` [Example 119, 4-(2-(azetidin-1-yl)-4-((1R,5S)-3,8-diazabicyclo[3.2.1]octan-3-yl)-8-fluoropyrido[4,3-d]pyrimidin-7-yl)naphthalen-2-ol 2,2,2-trifluoroacetate], the IC50 on KRas G12D [1] turned out to be 684 nM. The Kd on KRas G12D [2] turned out to be 511 nM.

As for `CN(C)C1CN(c2nc(N3C[C@H]4CC[C@@H](C3)N4)c3cnc(-c4cc(O)cc5ccccc45)c(F)c3n2)C1` [Example 120, 4-(4-((1R,5S)-3,8-diazabicyclo[3.2.1]octan-3-yl)-2-(3-(dimethylamino)azetidin-1-yl)-8-fluoropyrido[4,3-d]pyrimidin-7-yl)naphthalen-2-ol bis(2,2,2-trifluoroacetate)], the IC50 on KRas G12D [1] came to 28.8 nM. The equilibrium dissociation constant (Kd) on KRas G12D [2] was 42.1 nM.

`OC[C@@H]1CCN1c1nc(N2C[C@H]3CC[C@@H](C2)N3)c2cnc(-c3cc(O)cc4ccccc34)c(F)c2n1` [Example 121, 4-(4-((1R,5S)-3,8-diazabicyclo[3.2.1]octan-3-yl)-8-fluoro-2-((S)-2-(hydroxymethyl)azetidin-1-yl)pyrido[4,3-d]pyrimidin-7-yl)naphthalen-2-ol 2,2,2-trifluoroacetate] yielded an IC50 on KRas G12D [1] of 204 nM. For the same molecule, the Kd on KRas G12D [2] stood at 197 nM.

In the case of `CN(C)C1CN(c2nc(N3C[C@H]4CC[C@@H](C3)N4)c3cnc(-c4cccc5cccc(Cl)c45)c(F)c3n2)C1` [Example 122, 1-(4-((1R,5S)-3,8-diazabicyclo[3.2.1]octan-3-yl)-7-(8-chloronaphthalen-1-yl)-8-fluoropyrido[4,3-d]pyrimidin-2-yl)-N,N-dimethylazetidin-3-amine], the IC50 on KRas G12D [1] was determined as 3270 nM. At KRas G12D [2], the dissociation constant Kd worked out at 3420 nM.

In turn, `CN1CCC[C@H]1COc1nc(N2C[C@H]3CC[C@@H](C2)N3)c2cnc(-c3cccc4cccc(Cl)c34)cc2n1` [Example 123, 4-((1R,5S)-3,8-diazabicyclo[3.2.1]octan-3-yl)-7-(8-chloronaphthalen-1-yl)-2-(((S)-1-methylpyrrolidin-2-yl)methoxy)pyrido[4,3-d]pyrimidine] displayed an IC50 at KRas G12D [1] of 754 nM. For the same molecule, binding on KRas G12D [2] was characterised by a dissociation constant (Kd) of 786 nM.

`CC1(N)CN(c2nc(N3C[C@H]4CC[C@@H](C3)N4)c3cnc(-c4cc(O)cc5ccccc45)c(F)c3n2)C1` [Example 124, 4-(2-(3-amino-3-methylazetidin-1-yl)-4-((1R,5S)-3,8-diazabicyclo[3.2.1]octan-3-yl)-8-fluoropyrido[4,3-d]pyrimidin-7-yl)naphthalen-2-ol]: on KRas G12D [1], the 50% inhibitory concentration (IC50) worked out at 8.6 nM. The molecule also registered an equilibrium dissociation constant (Kd) at KRas G12D [2] of 22.7 nM.

`CCC1(N)CN(c2nc(N3C[C@H]4CC[C@@H](C3)N4)c3cnc(-c4cc(O)cc5ccccc45)c(F)c3n2)C1` [Example 126, 4-(2-(3-amino-3-ethylazetidin-1-yl)-4-((1R,5S)-3,8-diazabicyclo[3.2.1]octan-3-yl)-8-fluoropyrido[4,3-d]pyrimidin-7-yl)naphthalen-2-ol] had an IC50 on KRas G12D [1] of 9.9 nM. This molecule also gave a Kd at KRas G12D [2] of 16.1 nM.

Take `CN(C)C1(C)CN(c2nc(N3C[C@H]4CC[C@@H](C3)N4)c3cnc(-c4cccc5cccc(Cl)c45)c(F)c3n2)C1` [Example 127, 1-(4-((1R,5S)-3,8-diazabicyclo[3.2.1]octan-3-yl)-7-(8-chloronaphthalen-1-yl)-8-fluoropyrido[4,3-d]pyrimidin-2-yl)-N,N,3-trimethylazetidin-3-amine]: the IC50 at KRas G12D [1] was 251 nM. Also, the equilibrium dissociation constant (Kd) on KRas G12D [2] was determined as 864 nM.

In turn, `CN1CC(COc2nc(N3C[C@H]4CC[C@@H](C3)N4)c3cnc(-c4cccc5cccc(Cl)c45)c(F)c3n2)CC1=O` (stereo partly drawn) [Example 131, 4-(((4-((1R,5S)-3,8-diazabicyclo[3.2.1]octan-3-yl)-7-(8-chloronaphthalen-1-yl)-8-fluoropyrido[4,3-d]pyrimidin-2-yl)oxy)methyl)-1-methylpyrrolidin-2-one] yielded an IC50 on KRas G12D [1] of 424 nM. Besides, the affinity at KRas G12D [2], expressed as Kd, was 1550 nM.

`CN1CCC[C@H]1COc1nc(N2C[C@H]3CC[C@@H](C2)N3)c2cnc(-c3cccc4cccc(Cl)c34)c(F)c2n1` [Example 132, 4-((1R,5S)-3,8-diazabicyclo[3.2.1]octan-3-yl)-7-(8-chloronaphthalen-1-yl)-8-fluoro-2-(((S)-1-methylpyrrolidin-2-yl)methoxy)pyrido[4,3-d]pyrimidine] had an IC50 on KRas G12D [1] of 60.5 nM. Moreover, on KRas G12D [2], binding was put at a Kd of 64.7 nM.

For the molecule `CC1CCCc2cccc(-c3ncc4c(N5CC6CCC(C5)N6)nc(OC[C@@H]5CCCN5C)nc4c3F)c21` (stereo partly drawn) [Example 133, 4-((I R,5S)-3,8-diazabicyclo[3.2.1]octan-3-yl)-8-fluoro-7-(8-methyl-5,6,7,8-tetrahydronaphthalen-1-yl)-2-(((S)-1-methylpyrrolidin-2-yl)methoxy)pyrido[4,3-d]pyrimidine], the IC50 on KRas G12D [1] came out at 48.8 nM. This molecule also yielded a Kd at KRas G12D [2] of 113 nM.

On KRas G12D [1], `Nc1cccc(CCOc2nc(N3C[C@H]4CC[C@@H](C3)N4)c3cnc(-c4cc(O)cc5ccccc45)c(F)c3n2)n1` [Example 139, 4-(2-(2-(6-aminopyridin-2-yl)ethoxy)-4-((1R,5S)-3,8-diazabicyclo[3.2.1]octan-3-yl)-8-fluoropyrido[4,3-d]pyrimidin-7-yl)naphthalen-2-ol] yielded an IC50 of 113 nM. The molecule further showed a Kd on KRas G12D [2] of 25.4 nM.

`Fc1c(-c2cccc3cccc(Cl)c23)ncc2c(N3C[C@H]4CC[C@@H](C3)N4)nc(OC3CCc4[nH]ncc4C3)nc12` (stereo partly drawn) [Example 142, 4-((1R,5S)-3,8-diazabicyclo[3.2.1]octan-3-yl)-7-(8-chloronaphthalen-1-yl)-8-fluoro-2-((4,5,6,7-tetrahydro-1H-indazol-5-yl)oxy)pyrido[4,3-d]pyrimidine] returned an IC50 on KRas G12D [1] of 8850 nM. The Kd at KRas G12D [2] turned out to be 13800 nM.

For the molecule `Fc1c(-c2cccc3cccc(Cl)c23)ncc2c(N3C[C@H]4CC[C@@H](C3)N4)nc(OC3CCc4cn[nH]c4C3)nc12` (stereo partly drawn) [Example 143, 4-((1R,5S)-3,8-diazabicyclo[3.2.1]octan-3-yl)-7-(8-chloronaphthalen-1-yl)-8-fluoro-2-((4,5,6,7-tetrahydro-1H-indazol-6-yl)oxy)pyrido[4,3-d]pyrimidine], the IC50 at KRas G12D [1] is 4560 nM. In addition, binding at KRas G12D [2] was put at a Kd of 14900 nM.

Turning to `Fc1c(-c2cccc3cccc(Cl)c23)ncc2c(N3C[C@H]4CC[C@@H](C3)N4)nc(OCCn3cccn3)nc12` [Example 147, 2-(2-(1H-pyrazol-1-yl)ethoxy)-4-((1R,5S)-3,8-diazabicyclo[3.2.1]octan-3-yl)-7-(8-chloronaphthalen-1-yl)-8-fluoropyrido[4,3-d]pyrimidine], the IC50 at KRas G12D [1] was 5880 nM. The molecule also registered a Kd at KRas G12D [2] of 18800 nM.

On to `CN1CCC[C@H]1COc1nc(N2C[C@H]3CC[C@@H](C2)N3)c2cnc(-c3cncc4cccc(Cl)c34)c(F)c2n1` [Example 151, 4-((1R,5S)-3,8-diazabicyclo[3.2.1]octan-3-yl)-7-(5-chloroisoquinolin-4-yl)-8-fluoro-2-(((S)-1-methylpyrrolidin-2-yl)methoxy)pyrido[4,3-d]pyrimidine], for which the IC50 on KRas G12D [1] is 388 nM. This molecule also came in with a Kd at KRas G12D [2] of 448 nM.

For `CN1CCC[C@H]1COc1nc(N2CC3CCC(C)(C2)N3)c2cnc(-c3cc(O)cc4ccccc34)c(F)c2n1` (stereo partly drawn) [Example 156, 4-(8-fluoro-4-(1-methyl-3,8-diazabicyclo[3.2.1]octan-3-yl)-2-(((S)-1-methylpyrrolidin-2-yl)methoxy)pyrido[4,3-d]pyrimidin-7-yl)naphthalen-2-ol bis(2,2,2-trifluoroacetate)], the IC50 on KRas G12D [1] is 9.1 nM. For the same molecule, the affinity on KRas G12D [2], expressed as Kd, was 500000 nM.

At KRas G12D [1], `CN1CCC[C@H]1COc1nc(N2CC3CCC(CCC#N)(C2)N3)c2cnc(-c3cc(O)cc4ccccc34)c(F)c2n1` (stereo partly drawn) [Example 157, 3-(3-(8-fluoro-7-(3-hydroxynaphthalen-1-yl)-2-(((S)-1-methylpyrrolidin-2-yl)methoxy)pyrido[4,3-d]pyrimidin-4-yl)-3,8-diazabicyclo[3.2.1]octan-1-yl)propanenitrile bis(2,2,2-trifluoroacetate)] returned a half-inhibitory concentration (IC50) of 26.6 nM. The same molecule returned a Kd at KRas G12D [2] of 22.9 nM.

On KRas G12D [1], `CN1CCC[C@H]1COc1nc(N2CC3CCC(Cl)(C2)N3)c2cnc(-c3cc(O)cc4ccccc34)c(F)c2n1` (stereo partly drawn) [Example 160, 4-(4-(1-chloro-3,8-diazabicyclo[3.2.1]octan-3-yl)-8-fluoro-2-(((S)-1-methylpyrrolidin-2-yl)methoxy)pyrido[4,3-d]pyrimidin-7-yl)naphthalen-2-ol bis(2,2,2-trifluoroacetate)] displayed an IC50 of 120 nM. Binding at KRas G12D [2] was put at a Kd of 0.3 nM.

For `CN1CCC[C@H]1COc1nc(N2C[C@H]3CC[C@@H](C2)N3)c2cnc(-c3cccc4c3C(C)(C)CC4)c(F)c2n1` [Example 161, 4-((1R,5S)-3,8-diazabicyclo[3.2.1]octan-3-yl)-7-(3,3-dimethyl-2,3-dihydro-1H-inden-4-yl)-8-fluoro-2-(((S)-1-methylpyrrolidin-2-yl)methoxy)pyrido[4,3-d]pyrimidine bis(2,2,2-trifluoroacetate)], the IC50 on KRas G12D [1] was 273 nM. Binding on KRas G12D [2] was characterised by a dissociation constant (Kd) of 403 nM.

In turn, `CN1CCC[C@H]1COc1nc(N2C[C@H]3CC[C@@H](C2)N3)c2cnc(-c3cccc4c3C3(CC4)CC3)c(F)c2n1` [Example 162, 4-((1R,5S)-3,8-diazabicyclo[3.2.1]octan-3-yl)-7-(2′,3′-dihydrospiro[cyclopropane-1,1′-inden]-7′-yl)-8-fluoro-2-(((S)-1-methylpyrrolidin-2-yl)methoxy)pyrido[4,3-d]pyrimidine bis(2,2,2-trifluoroacetate)] showed an IC50 on KRas G12D [1] of 677 nM. The same molecule registered a Kd on KRas G12D [2] of 555 nM.

In the case of `Cn1ccnc1CCOc1nc(N2C[C@H]3C[C@@H](O)[C@@H](C2)N3)c2cnc(-c3cccc4cccc(Cl)c34)c(F)c2n1` [Example 173, (1R,5R,6R)-3-(7-(8-chloronaphthalen-1-yl)-8-fluoro-2-(2-(1-methyl-1H-imidazol-2-yl)ethoxy)pyrido[4,3-d]pyrimidin-4-yl)-3,8-diazabicyclo[3.2.1]octan-6-ol], at KRas G12D [1], the IC50 stood at 99.2 nM. Binding on KRas G12D [2] was put at a Kd of 117 nM.

(Values after patent US20230279025A1, “KRAS G12D INHIBITORS” (Mirati Therapeutics, Inc., priority 2020, published 2023).)
